From ChEMBL document CHEMBL1201862, “PubChem BioAssay data set” (2004)
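How tested: cells in 96-well plates exposed to compound for 48 hours at five concentrations. Here, GI50 denotes the concentration required for 50% inhibition of growth.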 Active and inactive are the calls of the source. Cut-off read from the data, not from the text of the source: active = GI50 up to about 1.1 µM and inactive = higher.

Columns and labels:
Test in all cases: inhibition of tumour cell growth, NCI panel, 48 h
[1] = system: UACC-257
[2] = system: CAKI-1
[3] = system: SK-MEL-2
[4] = system: A549
[5] = system: SK-MEL-28
[6] = system: KM12
[7] = system: OVCAR-8
[8] = system: EKVX
[9] = system: TK-10
[10] = system: HCT-116
[11] = system: NCI-H226
[12] = system: OVCAR-5
[13] = system: MOLT-4
[14] = system: RPMI-8226
[15] = system: M14
[16] = system: SW-620
[17] = system: NCI-H522

Measured: GI50

C=C1C(=O)O[C@H](c2ccoc2)C[C@@H]1[C@@]1(C)CCCC2(C)C(=O)OCC21 (some centres not stated)
inactive: [1] > 100 µM | [2] > 100 µM | [3] > 100 µM | [4] > 100 µM | [5] > 100 µM | [6] > 100 µM | [7] > 100 µM | [8] > 100 µM | [9] > 100 µM | [10] > 100 µM | [11] > 100 µM | [12] > 100 µM | [13] > 100 µM | [14] > 100 µM | [15] > 100 µM | [16] > 100 µM | [17] > 100 µM

CC(C)(C)c1cc(CCC(=O)Nc2ccc(Cl)cc2)nc(NC#N)n1
inactive: [1] > 100 µM | [2] > 100 µM | [3] > 100 µM | [4] > 100 µM | [5] > 100 µM | [6] > 100 µM | [7] > 100 µM | [8] > 100 µM | [9] > 100 µM | [10] > 100 µM | [11] > 100 µM | [12] > 100 µM | [13] > 100 µM | [15] > 100 µM | [16] > 100 µM

O=c1[c-](-c2ccccc2)[se]c(-c2ccccc2)[n+]1-c1ccccc1
inactive: [1] 12.8 µM | [2] 19.1 µM | [3] 6.55 µM | [4] 16.3 µM | [5] 9.31 µM | [6] 10.3 µM | [7] 3.8 µM | [8] 13.5 µM | [9] 8.32 µM | [10] 3.51 µM | [11] 3.13 µM | [13] 18.8 µM | [14] 29.1 µM | [15] 4.99 µM | [16] 12.5 µM | [17] 2.91 µM

O=C(Nc1ccc(Cl)cc1Cl)OC(Cn1cncn1)c1ccc(Cl)cc1Cl (configuration not stated)
inactive: [1] 17 µM | [3] 19.2 µM | [4] 15.5 µM | [5] 16.3 µM | [6] 17.2 µM | [7] 17.3 µM | [8] 16 µM | [10] 14.1 µM | [11] 19.7 µM | [13] 31.6 µM | [14] 94.6 µM | [15] 17.9 µM | [16] 16.7 µM | [17] 16.3 µM

COC(=O)Cc1cc(OC)c(OC)cc1Br
inactive: [1] > 100 µM | [2] > 100 µM | [3] > 100 µM | [4] > 100 µM | [5] > 100 µM | [6] > 100 µM | [7] > 100 µM | [8] > 100 µM | [9] > 100 µM | [10] > 100 µM | [11] > 100 µM | [12] > 100 µM | [13] > 100 µM | [14] > 100 µM | [15] > 100 µM | [16] > 100 µM | [17] > 100 µM

CC(C)N(C(=O)C12C3C4C1C1C2C3C41C(=O)O)C(C)C (configuration not stated)
inactive: [1] > 100 µM | [2] > 100 µM | [3] > 100 µM | [4] > 100 µM | [5] > 100 µM | [6] > 100 µM | [7] > 100 µM | [8] > 100 µM | [9] > 100 µM | [10] > 100 µM | [11] > 100 µM | [12] > 100 µM | [13] > 100 µM | [14] > 100 µM | [15] > 100 µM | [16] > 100 µM | [17] > 100 µM

C[N+](C)(C)CC(=O)N/N=C/c1oc(-c2cccc([N+](=O)[O-])c2)c(-c2cccc([N+](=O)[O-])c2)c1[N+](=O)[O-]
inactive: [1] > 100 µM | [3] > 100 µM | [4] > 100 µM | [5] 44.3 µM | [7] 70.8 µM | [8] > 100 µM | [9] > 100 µM | [10] 32.7 µM | [12] > 100 µM | [13] > 10 µM | [14] 21.7 µM | [15] > 100 µM | [16] 31.3 µM | [17] 50.7 µM

COc1cc(C2C(Cl)C(=O)N2NC(=O)c2ccc(N)cc2)cc(Br)c1O (configuration not stated)
inactive: [1] 19 µM | [2] 16.8 µM | [3] 17 µM | [4] 21.5 µM | [5] 16.2 µM | [6] 16 µM | [7] 28.4 µM | [8] 13.2 µM | [9] 18.5 µM | [10] 10.4 µM | [11] 21.5 µM | [12] 19.4 µM | [13] 4.23 µM | [14] 24.4 µM | [15] 15.5 µM | [16] 15.2 µM | [17] 1.92 µM
